# Assay results published in patent publication US20080167314A1, “Condensed Imidazole Compound And Use Thereof” (priority 2004, published 2008).
# Counter-ions that a name gives are not always drawn.
row,Compound,melting point
1,Cc1cc(-c2nc3cccnn3c2-c2ccnc(NC(=O)NCCCCO)c2)ccc1F.Cl,188 to 189 °C
2,Cc1cc(-c2nc3cccnn3c2-c2ccnc(NC(=O)N3CCOCC3)c2)ccc1F.Cl,164 to 166 °C
3,Cc1cc(-c2nc3cccnn3c2-c2ccnc(NC(=O)N3CCC(O)CC3)c2)ccc1F.Cl,156 to 157 °C
4,Cc1cc(-c2nc3cccnn3c2-c2ccnc(NC(=O)c3ccc(Cl)cc3)c2)ccc1F.Cl,264 to 266 °C
5,COc1ccc(C(=O)Nc2cc(-c3c(-c4cccc(Cl)c4)nc4cccnn34)ccn2)cc1.Cl,236 to 238 °C
6,Cc1cc(-c2nc3cccnn3c2-c2ccnc(NC(=O)c3ccc(Cl)nc3)c2)ccc1F.Cl,250 to 251 °C
7,"Cc1cc(-c2nc3cccnn3c2-c2ccnc(NC(=O)c3ccc(Cl)cc3)c2)ccc1F (as salt: methanesulfonate) [Example 62, 4-Chloro-N-{4-[2-(4-fluoro-3-methylphenyl)imidazo[1,2-b]pyridazin-3-yl]pyridin-2-yl}benzamide methanesulfonate]",239 to 241 °C
8,"COc1ccc2nc(-c3cccc(C)c3)c(-c3ccnc(NC4CCCCC4)c3)n2n1 [Example 9, N-Cyclohexyl-4-[6-methoxy-2-(3-methylphenyl)imidazo[1,2-b]pyridazin-3-yl]pyridin-2-amine]",188 to 189 °C
9,"CSc1ccc2nc(-c3cccc(C)c3)c(-c3ccnc(NC4CCCCC4)c3)n2n1 [Example 10, N-Cyclohexyl-4-[2-(3-methylphenyl)-6-(methylthio)imidazo[1,2-b]pyridazin-3-yl]pyridin-2-amine]",150 to 151 °C
10,"Cc1cccc(-c2nc3ccc(S(C)(=O)=O)nn3c2-c2ccnc(NC3CCCCC3)c2)c1 [Example 11, N-Cyclohexyl-4-[2-(3-methylphenyl)-6-(methylsulfonyl)imidazo[1,2-b]pyridazin-3-yl]pyridin-2-amine]",196 to 197 °C
11,"Cc1cccc(-c2nc3ccc(Cl)nn3c2-c2ccnc(N)c2)c1 [Example 12, 4-[6-Chloro-2-(3-methylphenyl)imidazo[1,2-b]pyridazin-3-yl]pyridin-2-amine]",247 to 248 °C
12,"Cc1cccc(-c2nc3cccnn3c2-c2ccnc(N)c2)c1 [Example 14, 4-[2-(3-Methylphenyl)imidazo[1,2-b]pyridazin-3-yl]pyridin-2-amine]",188 to 189 °C
13,"COc1ccc(C(=O)Nc2cc(-c3c(-c4cccc(C)c4)nc4ccc(Cl)nn34)ccn2)cc1 [Example 18, N-{4-[6-Chloro-2-(3-methylphenyl)imidazo[1,2-b]pyridazin-3-yl]pyridin-2-yl}-4-methoxybenzamide]",204 to 205 °C
14,"CCC(=O)N(C(=O)CC)c1cc(-c2c(-c3cccc(C)c3)nc3cccnn23)ccn1 [Example 22, N-{4-[2-(3-Methylphenyl)imidazo[1,2-b]pyridazin-3-yl]pyridin-2-yl}-N-propionylpropanamide]",210 to 211 °C
15,"Cc1cccc(-c2nc3cccnn3c2-c2ccnc(NC(=O)C(C)O)c2)c1 (stereo not drawn) [Example 29, 2-Hydroxy-N-{4-[2-(3-methylphenyl)imidazo[1,2-b]pyridazin-3-yl]pyridin-2-yl}propanamide]",223 to 224 °C
16,"Cc1cccc(-c2nc3cccnn3c2-c2ccnc(NC(=O)N3CCCCC3)c2)c1 [Example 31, N-{4-[2-(3-Methylphenyl)imidazo[1,2-b]pyridazin-3-yl]pyridin-2-yl}piperidine-1-carboxamide]",173 to 175 °C
17,"Cc1cccc(-c2nc3ccc(Cl)nn3c2-c2ccnc(N)n2)c1 [Example 34, 4-[6-Chloro-2-(3-methylphenyl)imidazo[1,2-b]pyridazin-3-yl]-2-pyrimidinamine]",237 to 238 °C
18,"Cc1cccc(-c2nc3cccnn3c2-c2ccnc(NCC3CCCCC3)c2)c1 [Example 38, N-(Cyclohexylmethyl)-4-[2-(3-methylphenyl)imidazo[1,2-b]pyridazin-3-yl]pyridin-2-amine]",128 to 130 °C
19,"O=C(Nc1cc(-c2c(-c3ccc(F)cc3)nc3cccnn23)ccn1)c1ccncc1 [Example 40-1, N-{4-[2-(4-fluorophenyl)imidazo[1,2-b]pyridazin-3-yl]pyridin-2-yl}isonicotinamide]",226 to 227 °C
20,"O=C(Nc1cc(-c2c(-c3ccc(F)cc3)nc3cccnn23)ccn1)c1ccc(Cl)nc1 [Example 40-2, 6-chloro-N-{4-[2-(4-fluorophenyl)imidazo[1,2-b]pyridazin-3-yl]pyridin-2-yl}nicotinamide]",247 to 248 °C

# Now from value to compound:
row,melting point,Compound
1,235 to 236 °C,"Cc1cc(-c2nc3c(C)cc(Cl)nn3c2-c2ccnc(NC(=O)c3ccc(F)cc3)c2)ccc1F [Example 41-2, N-{4-[6-chloro-2-(4-fluoro-3-methylphenyl)-8-methylimidazo[1,2-b]pyridazin-3-yl]-2-pyridyl}-4-fluorobenzamide]"
2,181 to 182 °C,"Cc1cc(-c2nc3cc(C(C)(C)C)c(Cl)nn3c2-c2ccnc(NC(=O)c3ccc(F)cc3)c2)ccc1F [Example 41-3, N-{4-[7-tert-butyl-6-chloro-2-(4-fluoro-3-methylphenyl)imidazo[1,2-b]pyridazin-3-yl]-2-pyridyl}-4-fluorobenzamide]"
3,243 to 244 °C,"Cc1cc(-c2nc3c(C)ccnn3c2-c2ccnc(NC(=O)c3ccc(F)cc3)c2)ccc1F [Example 41-4, N-{4-[2-(4-fluoro-3-methylphenyl)-8-methylimidazo[1,2-b]pyridazin-3-yl]-2-pyridyl}-4-fluorobenzamide]"
4,201 to 202 °C,"Cc1cc(-c2nc3cc(C(C)(C)C)cnn3c2-c2ccnc(NC(=O)c3ccc(F)cc3)c2)ccc1F [Example 41-5, N-{4-[7-tert-butyl-2-(4-fluoro-3-methylphenyl)imidazo[1,2-b]pyridazin-3-yl]-2-pyridyl}-4-fluorobenzamide]"
5,220 to 221 °C,"Cc1cc(-c2nc3cccnn3c2-c2ccnc(NC(=O)CC(F)(F)F)c2)ccc1F [Example 42-1, 3,3,3-trifluoro-N-{4-[2-(4-fluoro-3-methylphenyl)imidazo[1,2-b]pyridazin-3-yl]pyridin-2-yl}propanamide]"
6,214 to 215 °C,"Cc1cc(-c2nc3cccnn3c2-c2ccnc(NC(=O)C(C)C)c2)ccc1F [Example 42-2, N-{4-[2-(4-fluoro-3-methylphenyl)imidazo[1,2-b]pyridazin-3-yl]pyridin-2-yl}-2-methylpropanamide]"
7,181 to 183 °C,"CCCC(=O)Nc1cc(-c2c(-c3ccc(F)c(C)c3)nc3cccnn23)ccn1 [Example 42-4, N-{4-[2-(4-fluoro-3-methylphenyl)imidazo[1,2-b]pyridazin-3-yl]pyridin-2-yl}butanamide]"
8,158 to 159 °C,"CSCCC(=O)Nc1cc(-c2c(-c3ccc(F)c(C)c3)nc3cccnn23)ccn1 [Example 42-5, N-{4-[2-(4-fluoro-3-methylphenyl)imidazo[1,2-b]pyridazin-3-yl]pyridin-2-yl}-3-(methylthio)propanamide]"
9,208 to 209 °C,"Cc1cc(-c2nc3cccnn3c2-c2ccnc(NC(=O)c3ccc(Cl)cc3)c2)ccc1F [Example 42-7, 4-chloro-N-{4-[2-(4-fluoro-3-methylphenyl)imidazo[1,2-b]pyridazin-3-yl]pyridin-2-yl}benzamide]"
10,251 to 252 °C,"COc1cc(F)ccc1C(=O)Nc1cc(-c2c(-c3ccc(F)c(C)c3)nc3cccnn23)ccn1 [Example 42-8, 4-fluoro-N-{4-[2-(4-fluoro-3-methylphenyl)imidazo[1,2-b]pyridazin-3-yl]pyridin-2-yl}-2-methoxybenzamide]"
11,191 to 192 °C,"CSc1ccc(C(=O)Nc2cc(-c3c(-c4ccc(F)c(C)c4)nc4cccnn34)ccn2)cc1 [Example 42-9, N-{4-[2-(4-fluoro-3-methylphenyl)imidazo[1,2-b]pyridazin-3-yl]pyridin-2-yl}-4-(methylthio)benzamide]"
12,245 to 246 °C,"Cc1cc(-c2nc3cccnn3c2-c2ccnc(NC(=O)c3ccc(N(C)C)cc3)c2)ccc1F [Example 42-10, 4-(dimethylamino)-N-{4-[2-(4-fluoro-3-methylphenyl)imidazo[1,2-b]pyridazin-3-yl]pyridin-2-yl}benzamide]"
13,217 to 218 °C,"COc1cc(C(=O)Nc2cc(-c3c(-c4ccc(F)c(C)c4)nc4cccnn34)ccn2)ccc1F [Example 42-11, 4-fluoro-N-{4-[2-(4-fluoro-3-methylphenyl)imidazo[1,2-b]pyridazin-3-yl]pyridin-2-yl}-3-methoxybenzamide]"
14,202 to 203 °C,"COc1ccc(C(=O)Nc2cc(-c3c(-c4ccc(F)c(C)c4)nc4cccnn34)ccn2)cc1F [Example 42-12, 3-fluoro-N-{4-[2-(4-fluoro-3-methylphenyl)imidazo[1,2-b]pyridazin-3-yl]pyridin-2-yl}-4-methoxybenzamide]"
15,224 to 225 °C,"Cc1cc(-c2nc3cccnn3c2-c2ccnc(NC(=O)c3ccc(C(F)(F)F)cc3)c2)ccc1F [Example 42-13, N-{4-[2-(4-fluoro-3-methylphenyl)imidazo[1,2-b]pyridazin-3-yl]pyridin-2-yl}-4-(trifluoromethyl)benzamide]"
16,225 to 226 °C,"Cc1cc(-c2nc3cccnn3c2-c2ccnc(NC(=O)c3ccc(OC(F)(F)F)cc3)c2)ccc1F [Example 42-14, N-{4-[2-(4-fluoro-3-methylphenyl)imidazo[1,2-b]pyridazin-3-yl]pyridin-2-yl}-4-(trifluoromethoxy)benzamide]"
17,196 to 197 °C,"Cc1cc(-c2nc3cccnn3c2-c2ccnc(NC(=O)c3ccc(Cl)cc3C)c2)ccc1F [Example 42-15, 4-chloro-N-{4-[2-(4-fluoro-3-methylphenyl)imidazo[1,2-b]pyridazin-3-yl]pyridin-2-yl}-2-methylbenzamide]"
18,200 to 202 °C,"COc1ccc(C(=O)Nc2cc(-c3c(-c4ccc(F)c(C)c4)nc4cccnn34)ccn2)c(C)c1 [Example 42-18, N-{4-[2-(4-fluoro-3-methylphenyl)imidazo[1,2-b]pyridazin-3-yl]pyridin-2-yl}-4-methoxy-2-methylbenzamide]"
19,187 to 188 °C,"Cc1cc(-c2nc3cccnn3c2-c2ccnc(NC(=O)c3ccc4ccccc4c3)c2)ccc1F [Example 42-19, N-{4-[2-(4-fluoro-3-methylphenyl)imidazo[1,2-b]pyridazin-3-yl]pyridin-2-yl}-2-naphthamide]"
